Assay results published in the NIST ThermoML archive (doi:10.1016/j.fluid.2010.05.010).
± gives the expanded uncertainty stated by the source.

Assay: activity coefficient (dimensionless); of the first substance listed, at infinite dilution; xn = mol fraction of the nth substance listed
Conditions: 101 kPa, Liquid, x1 = 0

Row | activity coefficient (273.35 K, Inert gas stripping) | activity coefficient (283.15 K, Inert gas stripping) | activity coefficient (293.15 K, Headspace solid-phase microextraction) | activity coefficient (293.15 K, Inert gas stripping) | activity coefficient (298.15 K, Headspace solid-phase microextraction) | activity coefficient (298.15 K, Inert gas stripping) | activity coefficient (303.15 K, Headspace solid-phase microextraction) | activity coefficient (303.15 K, Inert gas stripping) | activity coefficient (313.15 K, Inert gas stripping) | activity coefficient (323.15 K, Inert gas stripping) | activity coefficient (333.15 K, Inert gas stripping) | SMILES
1 | 283 ± 1 | 321 ± 1 | 380 ± 1 | 366 ± 1 | 389 ± 1 | 380 ± 1 | 382 ± 1 | 390 ± 1 | 403 ± 1 | 403 ± 1 | 394 ± 1 | C=C(C)C(=O)OC [methyl methacrylate] + O
2 | 37.6 ± 0.2 | 43.8 ± 0.1 | – | 46.3 ± 0.1 | – | 48 ± 0.1 | – | 49.3 ± 0.1 | 50 ± 0.1 | 50.9 ± 0.1 | 50.3 ± 0.1 | COC(=O)OC [dimethyl carbonate] + O
3 | 246 ± 1 | 299 ± 1 | – | 353 ± 1 | – | 374 ± 1 | – | 394 ± 1 | 408 ± 1 | 394 ± 1 | 388 ± 1 | CCOC(=O)OCC [diethyl carbonate] + O

Row | SMILES | activity coefficient (273.35 K, Inert gas stripping) | activity coefficient (283.15 K, Inert gas stripping) | activity coefficient (293.15 K, Headspace solid-phase microextraction) | activity coefficient (293.15 K, Inert gas stripping) | activity coefficient (298.15 K, Headspace solid-phase microextraction) | activity coefficient (298.15 K, Inert gas stripping) | activity coefficient (303.15 K, Headspace solid-phase microextraction) | activity coefficient (303.15 K, Inert gas stripping) | activity coefficient (313.15 K, Inert gas stripping) | activity coefficient (323.15 K, Inert gas stripping) | activity coefficient (333.15 K, Inert gas stripping)
4 | C=COC(C)=O [vinyl acetate] + O | 150 ± 1 | 161 ± 1 | – | 177 ± 1 | – | 181 ± 1 | – | 187 ± 1 | 190 ± 1 | 194 ± 1 | 187 ± 1
